Experiments:
[1] = molecular target: T1, recombinant BACE1 protein (Homo sapiens (Human), UniProt P56817); test: BACE1 Biochemical FRET based assay - Method 1; conditions: 1 μg/ml BACE1, 10 μM substrate, 120 min, pH 5.0
Text: (§1) This assay is a Fluorescence Resonance Energy Transfer Assay (FRET) based assay. The substrate for this assay is an APP derived 13 amino acids peptide that contains the ‘Swedish’ Lys-Met/Asn-Leu mutation of the amyloid precursor protein (APP) beta-secretase cleavage site. This substrate also contains two fluorophores: (7-methoxycoumarin-4-yl) acetic acid (Mca) is a fluorescent donor with excitation wavelength at 320 nm and emission at 405 nm and 2,4-Dinitrophenyl (Dnp) is a proprietary quencher acceptor. […] Upon cleavage by BACE1, the fluorophore Mca is separated from the quenching group Dnp, restoring the full fluorescence yield of the donor. The increase in fluorescence is linearly related to the rate of proteolysis.
Briefly in a 384-well format recombinant BACE1 protein in a final concentration of 1 μg/ml is incubated for 120 minutes at room temperature with […] substrate in incubation buffer (40 mM Citrate buffer pH 5.0, 0.04% PEG, 4% DMSO) in the absence or presence of compound. Next the amount of proteolysis is directly measured by fluorescence measurement at T=0 and T=120 (excitation at 320 nm and emission at 405 nm). Results are expressed in RFU (Relative Fluorescence Units), as difference between T120 and TO.

[2] = molecular target: T1, recombinant BACE1 protein; test: BACE1 Biochemical FRET based assay - Method 2; conditions: 0.04 μg/ml BACE1, 20 μM substrate, 450 min, pH 5.0
Text: as §1
Briefly in a 384-well format recombinant BACE1 protein in a final concentration of 0.04 μg/ml is incubated for 450 minutes at room temperature with 20 μM substrate in incubation buffer (50 mM Citrate buffer pH 5.0, 0.05% PEG) in the presence of compound or DMSO. Next the amount of proteolysis is directly measured by fluorescence measurement (excitation at 320 nm and emission at 405 nm) at different incubation times (0, 30, 60, 90, 120 and 450 min). For every experiment a time curve (every 30 min between 0 min and 120 min) is used to determine the time where we find the lowest basal signal of the high control. The signal at this time (Tx) is used to subtract from the signal at 450 min. Results are expressed in RFU, as difference between T450 and Tx.

[3] = test system: Abeta 1-42 secreted by human neuroblastoma SKNBE2 cells expressing wild type hAPP695; test: BACE1 cellular αLisa assay in SKNBE2 cells, Abeta 1-42; assay type: cell-based; conditions: 18 hours incubation
Protocol: (§2) In two αLisa assays the levels of Abeta total and Abeta 1-42 produced and secreted into the medium of human neuroblastoma SKNBE2 cells are quantified. The assay is based on the human neuroblastoma SKNBE2 expressing the wild type Amyloid Precursor Protein (hAPP695). The compounds are diluted and added to these cells, incubated for 18 hours and then measurements of Abeta 1-42 and Abeta total are taken. Abeta total and Abeta 1-42 are measured by sandwich αLisa. αLisa is a sandwich assay using biotinylated antibody AbN/25 attached to streptavidin coated beads and antibody Ab4G8 or cAb42/26 conjugated acceptor beads for the detection of Abeta total and Abeta 1-42 respectively. In the presence of Abeta total or Abeta 1-42, the beads come into close proximity. The excitation of the donor beads provokes the release of singlet oxygen molecules that trigger a cascade of energy transfer in the acceptor beads, resulting in light emission.

[4] = test system: Abeta total secreted by human neuroblastoma SKNBE2 cells expressing wild type hAPP695; test: BACE1 cellular αLisa assay in SKNBE2 cells, Abeta total; assay type: cell-based; conditions: 18 hours incubation
Protocol: as §2

[5] = molecular target: recombinant BACE2 protein (Homo sapiens (Human), UniProt Q9Y5Z0); test: BACE2 Biochemical FRET based assay; conditions: 0.4 μg/ml BACE2, 10 μM substrate, 450 min, pH 5.0
Text: as §1, with “assay” for “assay is an APP derived 13 amino acids peptide that”, “the beta-secretase,” for “BACE1,”
Briefly in a 384-well format recombinant BACE2 protein in a final concentration of 0.4 μg/ml is incubated for 450 minutes at room temperature with 10 μM substrate in incubation buffer (50 mM Citrate buffer pH 5.0, 0.05% PEG, no DMSO) in the absence or presence of compound. Next the amount of proteolysis is directly measured by fluorescence measurement at T=0 and T=450 (excitation at 320 nm and emission at 405 nm). Results are expressed in RFU (Relative Fluorescence Units), as difference between T450 and TO.

T1 sequence (P56817 46-501): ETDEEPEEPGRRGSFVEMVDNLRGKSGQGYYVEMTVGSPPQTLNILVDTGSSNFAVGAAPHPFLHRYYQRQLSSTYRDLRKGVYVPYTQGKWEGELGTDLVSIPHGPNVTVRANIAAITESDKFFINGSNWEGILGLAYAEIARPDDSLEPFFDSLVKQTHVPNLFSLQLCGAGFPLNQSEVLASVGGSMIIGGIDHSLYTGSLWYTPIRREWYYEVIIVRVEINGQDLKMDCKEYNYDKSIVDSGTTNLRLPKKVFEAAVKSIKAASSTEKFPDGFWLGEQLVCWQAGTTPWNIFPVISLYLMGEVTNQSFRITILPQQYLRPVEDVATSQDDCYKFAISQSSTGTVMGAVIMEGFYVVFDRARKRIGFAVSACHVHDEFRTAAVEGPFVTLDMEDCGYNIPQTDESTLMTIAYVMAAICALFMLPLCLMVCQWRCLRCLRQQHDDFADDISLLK
Chain of recombinant BACE2 protein (Q9Y5Z0 63-518): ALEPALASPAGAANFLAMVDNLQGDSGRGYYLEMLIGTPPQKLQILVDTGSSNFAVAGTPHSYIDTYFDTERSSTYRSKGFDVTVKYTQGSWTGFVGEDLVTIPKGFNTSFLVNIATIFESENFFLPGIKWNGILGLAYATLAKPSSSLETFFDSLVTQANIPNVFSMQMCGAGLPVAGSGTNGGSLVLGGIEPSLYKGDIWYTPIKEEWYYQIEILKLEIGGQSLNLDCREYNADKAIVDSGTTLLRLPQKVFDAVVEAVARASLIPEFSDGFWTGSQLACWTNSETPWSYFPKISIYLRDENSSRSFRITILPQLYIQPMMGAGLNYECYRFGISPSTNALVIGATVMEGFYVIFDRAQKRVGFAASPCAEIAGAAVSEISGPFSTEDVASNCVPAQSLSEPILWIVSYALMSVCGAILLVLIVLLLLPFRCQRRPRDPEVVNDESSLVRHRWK

SMILES	BACE1 Biochemical FRET based assay - Method 1 pIC50 [1]	BACE1 Biochemical FRET based assay - Method 2 pIC50 [2]	Cellular αLisa assay in SKNBE2 cells Abeta 42 pIC50 [3]	Cellular αLisa assay in SKNBE2 cells Abetatotal pIC50 [4]	BACE2 Biochemical FRET based assay pIC50 [5]	IC50 ([1]; read-out: BACE1 Biochemical FRET based assay - Method 1 pIC50 (converted))	IC50 ([3]; Homo sapiens, read-out: Cellular αLisa assay in SKNBE2 cells Abeta 42 pIC50 (converted))	IC50 ([4]; Homo sapiens, read-out: Cellular αLisa assay in SKNBE2 cells Abetatotal pIC50 (converted))
C[C@@]1(c2cc(NC(=O)c3ccc(Cl)cn3)ccc2F)Cn2nncc2C(N)=N1 [Compound 4]	8.76	8.75	8.77	8.88	8.56			
COc1cnc(C(=O)Nc2ccc(F)c([C@]3(C)Cn4nncc4C(N)=N3)c2)cn1 [Compound 3, N-{3-[(6R)-4-Amino-6-methyl-6,7-dihydro[1,2,3]triazolo[1,5-a]pyrazin-6-yl]-4-fluorophenyl}-5-methoxypyrazine-2-carboxamide]		8.69			7.81	2.04 nM	1.82 nM	1.62 nM
